Patent US11427615B2, “Peptide compound and application thereof, and composition containing peptide compound” (XDCEXPLORER (SHANGHAI) CO., LTD., priority 2017, dated 2022)
Like-named read-outs stand apart in the source and are kept apart here. Starred links: 1 amine or outer side, 2 acyl side, 3 side chain; linkers in the order of their positions; H or OH if unused. Positions of bridges follow the written chain, without caps; N, C: chain ends. Non-standard residues stand in square brackets, D forms with d. Residues, ends and D or L forms follow the SMILES beside them. *: point of attachment. X2 = CCCCCCCCCCCC(=O)NCCOCCOCCOCCOCCOCCn1cc(CC(=O)*)nn1; X14 = O=C(c1cnc([C@H](Cc2ccccc2)N[*:1])[nH]1)[*:2]; cPrCO(1-aminomethyl) = O=C(C1(CN[*:1])CC1)[*:2]; dPhe(2,4-Cl2) = N[C@H](Cc1ccc(Cl)cc1Cl)C(=O)O; Phe(4-Cl) = N[C@@H](Cc1ccc(Cl)cc1)C(=O)O; dPhe(3-Cl) = N[C@H](Cc1cccc(Cl)c1)C(=O)O; Pro(4,4-F2) = O=C(O)[C@@H]1CC(F)(F)CN1; dAla(2-furyl) = N[C@H](Cc1ccco1)C(=O)O; dPhe(4-F) = N[C@H](Cc1ccc(F)cc1)C(=O)O; X9 = CC(C)CC(C(=O)[*:2])C(=S)NCN[*:1]; Arg(Me) = CNC(=N)NCCC[C@H](N)C(=O)O; Hyp = O=C(O)[C@@H]1C[C@@H](O)CN1; 2Thi = N[C@@H](Cc1cccs1)C(=O)O; NMeL = CN[C@@H](CC(C)C)C(=O)O; S5 = C=CCCC[C@](C)(N)C(=O)O; Pip = O=C(O)[C@@H]1CCCCN1; Ac6c = NC1(C(=O)O)CCCCC1; Aze = O=C(O)[C@@H]1CCN1; azaGly = NNC(=O)O; βAla = NCCC(=O)O

Molecular target: T1, human kiss1 receptor (GPR54) (Homo sapiens, UniProt Q969F8)
T1 construct: host or cells: NFAT-bla CHO-K1 cells (Chinese hamster ovary), purchased recombinant cell line
Assay: Kiss1 receptor (GPR54) binding activity of agonists, FRET detection in NFAT-bla CHO-K1 cells
Type: cell-based
Conditions: preliminary data, read-out: Preliminary measurement data (GPR54) EC50

[1] = GPR54, measured according to the method of effect Embodiment 1

T1 sequence (Q969F8 whole entry): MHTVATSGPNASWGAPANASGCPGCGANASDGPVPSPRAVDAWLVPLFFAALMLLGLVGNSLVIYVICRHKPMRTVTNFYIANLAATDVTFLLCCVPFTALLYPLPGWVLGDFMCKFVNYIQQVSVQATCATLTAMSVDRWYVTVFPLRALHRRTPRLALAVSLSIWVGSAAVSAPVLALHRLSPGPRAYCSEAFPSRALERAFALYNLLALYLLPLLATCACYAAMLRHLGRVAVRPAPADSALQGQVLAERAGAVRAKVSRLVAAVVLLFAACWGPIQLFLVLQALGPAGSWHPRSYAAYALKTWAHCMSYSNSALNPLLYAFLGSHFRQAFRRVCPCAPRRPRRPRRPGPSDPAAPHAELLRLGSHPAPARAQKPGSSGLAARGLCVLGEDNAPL

| SMILES | EC50 [1] [nM] | EC50 (human kiss1 receptor (GPR54), NFAT-bla CHO-K1 cells, FRET, method of effect Embodiment 1) [nM] |
| --- | --- | --- |
| CNC(=N)NCCC[C@H](NC(=O)[C@H](CC(C)C)NC(=O)NNC(=O)[C@H](Cc1ccccc1)NC(=O)C1(NC(=O)[C@H](CC(N)=O)NC(=O)[C@@H]2C[C@@H](O)CN2C(=O)[C@@H](Cc2ccc(O)cc2)NC(C)=O)CCCCC1)C(=O)N[C@@H](Cc1c[nH]c2ccccc12)C(N)=O [YA-387, Ac-(D-Tyr)-Hyp-Asn-A6c-Phe-azaGly-Leu-Arg(Me)-Trp-NH2] (Ac-[dY][Hyp]N[Ac6c]F[azaGly]L[Arg(Me)]W-NH2) | 0.041 |  |
| CNC(=N)NCCC[C@H](NC(=O)[C@H](CC(C)C)NC(=O)[C@@H]1CCN1C(=O)[C@H](Cc1ccccc1)NC(=O)[C@@H](NC(=O)[C@H](CC(N)=O)NC(=O)[C@@H]1C[C@@H](O)CN1C(=O)[C@@H](Cc1ccc(Cl)cc1Cl)NC(C)=O)[C@@H](C)O)C(=O)N[C@@H](Cc1c[nH]c2ccccc12)C(N)=O [YA-188, Ac-[D-Phe(2,4-DiCl)]-Hyp-Asn-Thr-Phe-Aze-Leu-Arg(Me)-Trp-NH2] (Ac-[dPhe(2,4-Cl2)][Hyp]NTF[Aze]L[Arg(Me)]W-NH2) | 0.477 |  |
| CNC(=N)NCCC[C@H](NC(=O)[C@H](CC(C)C)NC(=O)C1(NC(=O)[C@H](Cc2ccccc2)NC(=O)[C@@H](NC(=O)[C@H](CC(N)=O)NC(=O)[C@H](Cc2cccs2)NC(=O)[C@@H](Cc2ccc(F)cc2)NC(C)=O)[C@@H](C)O)CCCCC1)C(=O)N[C@@H](Cc1c[nH]c2ccccc12)C(N)=O [YA-199, Ac-[D-Phe(4-F)]-Thi-Asn-Thr-Phe-A6c-Leu-Arg(Me)-Trp-NH2] (Ac-[dPhe(4-F)][2Thi]NTF[Ac6c]L[Arg(Me)]W-NH2) | 15.6 |  |
| CNC(=N)NCCC[C@H](NC(=O)[C@H](CC(C)C)NC(=O)NNC(=O)[C@H](Cc1ccccc1)NC(=O)[C@@H](NC(=O)[C@H](CC(N)=O)NC(=O)C1(NC(=O)[C@@H](Cc2ccc(Cl)cc2Cl)NC(C)=O)CCCCC1)[C@@H](C)O)C(=O)N[C@@H](Cc1c[nH]c2ccccc12)C(N)=O [YA-260, Ac-[D-Phe(2,4-DiCl)]-A6c-Asn-Thr-Phe-azaGly-Leu-Arg(Me)-Trp-NH2] (Ac-[dPhe(2,4-Cl2)][Ac6c]NTF[azaGly]L[Arg(Me)]W-NH2) | 0.027 |  |
| CCCCCCCCCCCC(=O)NCCOCCOCCOCCOCCOCCn1cc(CC(=O)N[C@H](Cc2ccc(O)cc2)C(=O)N2C[C@H](O)C[C@H]2C(=O)N[C@@H](CC(N)=O)C(=O)N[C@H](C(=O)N[C@@H](Cc2ccccc2)C(=O)NCNC(=S)C(CC(C)C)C(=O)N[C@@H](CCCNC(=N)NC)C(=O)N[C@@H](Cc2c[nH]c3ccccc23)C(N)=O)[C@@H](C)O)nn1 (stereo partly drawn) [YA-348, M10 [Dodecanoyl-PEG5-1,2,3- Triazole cyclic-Acetyl, D-Tyr45, Hyp46, des47, Thr49, Gψ(NHCS)51, Arg(Me)53, Trp54]] (X2-[dY][Hyp]NTF[X9][Arg(Me)]W-NH2) | 0.019 |  |
| CNC(=N)NCCC[C@H](NC(=O)[C@H](CC(C)C)NC(=O)c1cnc([C@H](Cc2ccccc2)NC(=O)[C@@H](NC(=O)[C@H](CC(N)=O)NC(=O)[C@@H]2C[C@@H](O)CN2C(=O)[C@@H](Cc2ccc(O)cc2)NC(C)=O)[C@@H](C)O)[nH]1)C(=O)N[C@@H](Cc1c[nH]c2ccccc12)C(N)=O [YA-208, Ac-(D-Tyr)-Hyp-Asn-Thr-{(S)-2-(1-amino-2-phenylethyl)-1H-imidazole-5-carboxylic acid}-Leu-Arg(Me)-Trp-NH2] (Ac-[dY][Hyp]NT[X14]L[Arg(Me)]W-NH2) | 1.09 |  |
| CNC(=N)NCCC[C@H](NC(=O)[C@H](CC(C)C)NC(=O)C1(NC(=O)[C@H](Cc2ccccc2)NC(=O)[C@@H](NC(=O)[C@H](CC(N)=O)NC(=O)[C@@H]2CCCCN2C(=O)[C@@H](Cc2ccc(F)cc2)NC(C)=O)[C@@H](C)O)CCCCC1)C(=O)N[C@@H](Cc1c[nH]c2ccccc12)C(N)=O [YA-210, Ac-[D-Phe(4-F)]-(S-Pip)-Asn-Thr-Phe-A6c-Leu-Arg(Me)-Trp-NH2] (Ac-[dPhe(4-F)][Pip]NTF[Ac6c]L[Arg(Me)]W-NH2) | 1.47 |  |
| CNC(=N)NCCC[C@H](NC(=O)[C@H](CC(C)C)NC(=O)[C@@H]1CCN1C(=O)[C@H](Cc1ccccc1)NC(=O)[C@@H](NC(=O)[C@H](CC(N)=O)NC(=O)[C@@H]1C[C@@H](O)CN1C(=O)[C@@H](Cc1ccco1)NC(C)=O)[C@@H](C)O)C(=O)N[C@@H](Cc1c[nH]c2ccccc12)C(N)=O [YA-189, Ac-D-2Fua-Hyp-Asn-Thr-Phe-Aze-Leu-Arg(Me)-Trp-NH2] (Ac-[dAla(2-furyl)][Hyp]NTF[Aze]L[Arg(Me)]W-NH2) | 1.7 |  |
| CCCCCCCCCCCCCCCC(=O)NCCOCCOCCOCCOCCOCCOCCOCCOCCC(=O)NCC(=O)NCC(=O)N[C@@H](Cc1ccc(O)cc1)C(=O)N[C@@H](CC(N)=O)C(=O)N[C@@H](Cc1c[nH]c2ccccc12)C(=O)N[C@@H](CC(N)=O)C(=O)N[C@@H](CO)C(=O)N[C@@H](Cc1ccccc1)C(=O)NCC(=O)N[C@@H](CC(C)C)C(=O)N[C@@H](CCCNC(=N)N)C(=O)N[C@@H](Cc1ccccc1)C(N)=O [YA-158, Palm-PEG8-Gly-Gly-Tyr-Asn-Trp-Asn-Ser-Phe-Gly-Leu-Arg-Phe-NH2] | 0.0478 |  |
| CC(=O)N[C@@H](Cc1ccc(O)cc1)C(=O)N[C@@H](CC(N)=O)C(=O)N[C@@H](Cc1c[nH]c2ccccc12)C(=O)N[C@@]1(C)CCCC=CCCC[C@@](C)(C(=O)N[C@@H](CCCNC(=N)N)C(=O)N[C@@H](Cc2ccccc2)C(N)=O)NC(=O)CNC(=O)[C@H](Cc2ccccc2)NC(=O)[C@H](CO)NC1=O [YA-146, Ac-Tyr-Asn-Trp-X-Ser-Phe-Gly-X-Arg-Phe-NH2 (stapled)] (Ac-YNW[S5]SFG[S5]RF-NH2; staple 4-8) | 545 |  |

Next, values leading:

| EC50 [1] [nM] | EC50 (human kiss1 receptor (GPR54), NFAT-bla CHO-K1 cells, FRET, method of effect Embodiment 1) [nM] | SMILES |
| --- | --- | --- |
| 0.01 |  | CNC(=N)NCCC[C@H](NC(=O)C(CC(C)C)C(=O)NCNC(=O)[C@H](Cc1ccccc1)NC(=O)[C@@H](NC(=O)[C@H](CC(N)=O)NC(=O)[C@@H]1C[C@@H](O)CN1C(=O)[C@@H](Cc1ccc(O)cc1)NC(C)=O)[C@@H](C)O)C(=O)N[C@@H](Cc1c[nH]c2ccccc12)C(N)=O (single isomer, unassigned) [YA-303, Ac-(D-Tyr)-Hyp-Asn-Thr-Phe-ψ(NHCO)Gly-Leu-Arg(Me)-Trp-NH2] |
| 0.007 |  | CNC(=N)NCCC[C@H](NC(=O)[C@H](CC(C)C)NC(=O)NNC(=O)[C@H](Cc1ccccc1)NC(=O)[C@@H](NC(=O)[C@H](CC(N)=O)NC(=O)[C@@H]1CC(F)(F)CN1C(=O)[C@@H](Cc1ccc(O)cc1)NC(C)=O)[C@@H](C)O)C(=O)N[C@@H](Cc1c[nH]c2ccccc12)C(N)=O [YA-80, Ac-D-Tyr-Pro(diF)-Asn-Thr-Phe-azaGly-Leu-Arg(Me)-Trp-NH2] (Ac-[dY][Pro(4,4-F2)]NTF[azaGly]L[Arg(Me)]W-NH2) |
| 2.79 |  | CNC(=N)NCCC[C@H](NC(=O)[C@H](CC(C)C)N(C)C(=O)CCNC(=O)[C@H](Cc1ccccc1)NC(=O)[C@@H](NC(=O)[C@H](CC(N)=O)NC(=O)[C@@H]1C[C@@H](O)CN1C(=O)[C@@H](Cc1ccc(O)cc1)NC(C)=O)[C@@H](C)O)C(=O)N[C@@H](Cc1c[nH]c2ccccc12)C(N)=O [YA-82, Ac-(D-Tyr)-Hyp-Asn-Thr-Phe-BetaAla-(NMe-Leu)-Arg(Me)-Trp-NH2] (Ac-[dY][Hyp]NTF[βAla][NMeL][Arg(Me)]W-NH2) |
|  | 42.6 | CNC(=N)NCCC[C@H](NC(=O)[C@H](CC(C)C)NC(=O)C1(CNC(=O)[C@H](Cc2ccccc2)NC(=O)[C@@H](NC(=O)[C@H](CC(N)=O)NC(=O)[C@@H]2C[C@@H](O)CN2C(=O)[C@@H](Cc2ccc(O)cc2)NC(C)=O)[C@@H](C)O)CC1)C(=O)N[C@@H](Cc1c[nH]c2ccccc12)C(N)=O [YA-289, Ac-(D-Tyr)-Hyp-Asn-Thr-Phe-ACPA-Leu-Arg(Me)-Trp-NH2] (Ac-[dY][Hyp]NTF[cPrCO(1-aminomethyl)]L[Arg(Me)]W-NH2) |
| 0.86 |  | CNC(=N)NCCC[C@H](NC(=O)[C@H](CC(C)C)NC(=O)NNC(=O)[C@H](Cc1ccccc1)NC(=O)[C@@H](Cc1ccco1)NC(=O)[C@H](CC(N)=O)NC(=O)[C@@H]1C[C@@H](O)CN1C(=O)[C@@H](Cc1ccc(O)cc1)NC(C)=O)C(=O)N[C@@H](Cc1c[nH]c2ccccc12)C(N)=O [YA-166] (Ac-[dY][Hyp]N[dAla(2-furyl)]F[azaGly]L[Arg(Me)]W-NH2) |
| 5.55 |  | CNC(=N)NCCC[C@H](NC(=O)[C@H](CC(C)C)NC(=O)NNC(=O)[C@H](Cc1ccccc1)NC(=O)[C@@H](NC(=O)[C@H](CC(N)=O)NC(=O)[C@@H]1C[C@@H](O)CN1C(=O)[C@H](Cc1ccc(Cl)cc1)NC(C)=O)[C@@H](C)O)C(=O)N[C@@H](Cc1c[nH]c2ccccc12)C(N)=O [YA-72, Ac-Phe(4-Cl)-Hyp-Asn-Thr-Phe-azaGly-Leu-Arg(Me)-Trp-NH2] (Ac-[Phe(4-Cl)][Hyp]NTF[azaGly]L[Arg(Me)]W-NH2) |
| 0.122 |  | CNC(=N)NCCC[C@H](NC(=O)[C@H](CC(C)C)NC(=O)NNC(=O)[C@H](Cc1ccccc1)NC(=O)[C@@H](NC(=O)[C@H](CC(N)=O)NC(=O)[C@@H]1C[C@@H](O)CN1C(=O)[C@@H](Cc1cccc(Cl)c1)NC(C)=O)[C@@H](C)O)C(=O)N[C@@H](Cc1c[nH]c2ccccc12)C(N)=O [YA-215, Ac-[D-Phe(3-Cl)]-Hyp-Asn-Thr-Phe-azaGly-Leu-Arg(Me)-Trp-NH2] (Ac-[dPhe(3-Cl)][Hyp]NTF[azaGly]L[Arg(Me)]W-NH2) |
| 0.095 |  | CNC(=N)NCCC[C@H](NC(=O)[C@H](CC(C)C)NC(=O)NNC(=O)[C@H](Cc1ccccc1)NC(=O)[C@@H](NC(=O)[C@H](CC(N)=O)NC(=O)[C@@H]1C[C@@H](O)CN1C(=O)[C@@H](Cc1ccco1)NC(C)=O)[C@@H](C)O)C(=O)N[C@@H](Cc1c[nH]c2ccccc12)C(N)=O [YA-43, Ac-(D-2Fua)-Hyp-Asn-Thr-Phe-azaGly-Leu-Arg(Me)-Trp-NH2] (Ac-[dAla(2-furyl)][Hyp]NTF[azaGly]L[Arg(Me)]W-NH2) |
| 0.034 |  | CNC(=N)NCCC[C@H](NC(=O)[C@H](CC(C)C)NC(=O)NNC(=O)[C@H](Cc1ccccc1)NC(=O)[C@@H](NC(=O)[C@H](CC(N)=O)NC(=O)C1(CNC(=O)[C@@H](Cc2ccc(O)cc2)NC(C)=O)CC1)[C@@H](C)O)C(=O)N[C@@H](Cc1c[nH]c2ccccc12)C(N)=O [YA-145, Ac-D-Tyr-ACPA-Asn-Thr-Phe-azaGly-Leu-Arg(Me)-Trp-NH2] (Ac-[dY][cPrCO(1-aminomethyl)]NTF[azaGly]L[Arg(Me)]W-NH2) |
